Where a name gives a salt, the structure may show the parent alone. Read-outs that look alike come from different tables or passages of the source.
What was measured:
[1] = system: cholesterol biosynthesis in HepG2 cells; test: Metabolic labeling of HepG2 cells with [3H]acetate; radio-HPLC sterol profile (inhibition of cholesterol biosynthesis); type: cell-based, human; details: HepG2; for activity at 10 µM: Homo sapiens, 24 h, Table I, sterol level normalized to normal medium (1.00), mean of 4 experiments
Experimental: In accordance with the aims of the invention, the effect of the novel compounds on inhibition of cholesterol biosynthesis is assessed. An ex vivo method of metabolic labeling of immortal human hepatocytes is employed. The radioactively labeled early precursor of cholesterol [3H]acetate is added to cells with or without addition of an active new compound.
An ex vivo method of metabolic labeling of immortal human hepatocytes is employed. The radioactively labeled early precursor of cholesterol [3H]acetate is added to cells with or without addition of an active compound.
Cell culture incubation with potential inhibitors of cholesterol biosynthesis and statins Human hepatoma cell line (HepG2-ATCC No. HB-8065) is split in the recommended ratio (1:2-3) into 75 cm^2 cell flasks using two flasks per experimental condition. Cells are incubated at 37° C. with 5% CO2 in Dulbeco's modified Eagle medium (DMEM high (Sigma)) containing 5% calf serum (Sigma) and 1% L-glutamine (Sigma). After 24-hours-culturing in the growth medium, the medium is replaced with the one supplemented with 10 μM concentration of a LK compound, potential inhibitor of cholesterol biosynthesis. 10 μM solution of atorvastatin, inhibitor of HMG-CoA reductase, serves as a positive control.
After 24 hours the growth medium is changed and [^3H]acetate (NEN™ Life Science Products) added in a concentration of 40 μCi per ml of the medium (400 μCi per flask). After 4 hours cells are harvested using 2 ml of trypsin (Sigma) and the cell pellet is resuspended in 1 ml of distilled water. Cells are homogenized using the freeze and thaw method. From cell homogenate sterols are extracted and protein concentration determined using the Bio-Rad reagent.
Homogenates are transferred into 4 ml glass vial and sterols are extracted in 3 ml of extraction solution (75% n-heptane: 25% isopropanol (vol./vol.)) with ergosterol as an internal standard. For better extraction 100 μl of 0.3M NaH2PO4 (pH=1.0) is added. Closed vials are vigorously shaken (1800 rpm) for 2 hours. After extraction procedure vials are centrifuged (2000 g, 10 min) and the organic phase is transferred to fresh conical glass tubes. Extraction procedure is repeated using 1 ml of extraction solution for 15 min. Organic phases are pooled. Primary extracts are dried in vacuum centrifuge, redissolved in 3 ml of n-heptane, and incubated for 10 min at room temperature with mild shaking. After centrifugation (10 min, 2000 g) extracts are transferred into fresh glass tubes and stored in dark and cold.
The organic phase is dried, reconstituted in mobile phase for reversed phase HPLC separation and loaded onto a-HPLC column, Prism-RPN, 5 μm, 250×4,6 mm running in 100% acetonitrile at 1.00 ml/min at 40° C. temperature. Scintillation liquid is added after UV detection at 30 ml/h, at room temperature, to evaluate tritium labeled sterols on a radio detector.
Sterols are determined by comparing the eluted peaks with runs of commercial standards of lanosterol, ergosterol, desmosterol, zymosterol, 7-dehydrocholesterol, lathosterol and cholesterol or laboratory standards (FF-MAS-4,4-Dimethylcholesta-8(9),14,24-triene-3β-ol- and T-MAS-4,4-Dimethylcholesta8(9),24,diene-3,6-ol, Laboratory of Reproductive Biology, The Juliane Marie Center for Children, Women and Reproduction, University Hospital of Copenhagen, DK-2100 Copenhagen, Denmark). Results were normalized on ergosterol quantity and protein concentration. Results are presented as a mean from 4 separated experiments.
The influence of a 10 μM solution of novel LK-substances on cholesterol biosynthesis in the assay on HepG2 cells is presented in Table I. Compounds are arranged according to the building blocks, three of them are 2-pyridineethanols, 2-pyridineethylpiperazines and pyridinemethylpiperazines.
Normal medium pertains to cell cultures without a compound of the invention. Its sterol levels were used for normalization. 10 μM solution of atorvastatin serves as a positive control.

[2] = Table II (arranged by sterol profile), 10 μM compound, normalized to normal medium (1.00)

| Compound | melting point [°C] | FF-MAS accumulation (in words) ([1]; 10 μM) | lanosterol level (in words) ([1]; 10 μM, relative to normal medium) | activity at 10 µM ([1]; 10 μM compound, read-out: FF-MAS) [%] | activity at 10 µM ([1]; 10 μM compound, read-out: cholesterol) [%] | activity at 10 µM ([1]; 10 μM compound, read-out: desmosterol) [%] | activity at 10 µM ([1]; 10 μM compound, read-out: lanosterol) [%] | activity at 10 µM ([1]; 10 μM compound, read-out: lathosterol) [%] | activity at 10 µM ([1]; 10 μM compound, read-out: zymosterol+7-dehydrocholesterol) [%] | FF-MAS [1, 2] | cholesterol [1, 2] | desmosterol [1, 2] | lanosterol [1, 2] | lathosterol [1, 2] | zymosterol+7-dehydrocholesterol [1, 2] |
| --- | --- | --- | --- | --- | --- | --- | --- | --- | --- | --- | --- | --- | --- | --- | --- |
| OC(CN1CCN(Cc2ccc(F)cc2)CC1)c1cccnc1 (stereo not shown) (as salt: hydrobromid) [LK-9148, 2-(4-(4-Fluorobenzyl)piperazine-1-yl)-1-(pyridine-3-yl)ethanol trihydrobromide] | 220 to 223 | – | – | – | – | – | – | – | – | – | – | – | – | – | – |
| OC(CN1CCN(CCc2ccccc2)CC1)c1ccc2ccccc2c1 (stereo not shown) [LK-9111B, 1-(Naphthalen-2-yl)-2-(4-phenethylpiperazin-1-yl)ethanol] | 126 to 129 | notably accumulate FF-MAS | indicates lanosterol accumulation | 901 | 0 | 0 | 197 | 46 | 171 | 9.01 | 0.00 | 0.00 | 1.97 | 0.46 | 1.71 |

— patent publication US20090018118A1, “HETEROCYCLIC COMPOUNDS” (priority 2005, published 2009)
